Assay results published in US11813276B2, “Compositions and methods for the treatment of AUD” (University of Southern California, priority 2020, dated 2023).

Key:
mice [1] = conditions: cited from earlier work
mice [2] = experiment: Earlier ethanol drinking studies with avermectins given alone; format: in vivo; conditions: for time from administration to time of significant reduction of ethanol intake: avermectin alone
Description: The altered function or expression of central nervous system (CNS) genes has long been considered a significant factor in contributing to the behavioral phenotype of alcoholism. By profiling gene expression in rodent strains undergoing multiple drinking paradigms, researchers have begun to identify potential candidate genes and pathways that may impart novel mechanistic information that drives the neurobiology of alcoholism.

Row | SMILES | voluntary ethanol intake (mice [1]; IVM alone, doses between 2.5 mg/kg and 10 mg/kg, mice models (Yardlet et al., 2012)) | ethanol intake (mice [1]; male and female mice, avermectin alone) | time from administration to time of significant reduction of ethanol intake (mice [2]) | effect of chronic administration on the reduction of ethanol intake (tolerance) (mice [2]; chronic administration) | toxicity or addictive liabilities (mice [2]; chronic administration, ethanol drinking studies) | toxicity or addictive liabilities (mice [2]; mouse, in vivo)
1 | CC[C@H](C)[C@H]1O[C@]2(CC[C@@H]1C)C[C@@H]1C[C@@H](C/C=C(\C)[C@@H](O[C@H]3C[C@H](OC)[C@@H](O[C@H]4C[C@H](OC)[C@@H](O)[C@H](C)O4)[C@H](C)O3)[C@@H](C)/C=C/C=C3\CO[C@@H]4[C@H](O)C(C)=C[C@@H](C(=O)O1)[C@]34O)O2 [IVM, ivermectin] | significant reduction in the voluntary ethanol intake | significantly reduced ethanol intake | 8 h | did not significantly alter the reduction of ethanol intake | nor was any measured or observed obvious increase in toxicity or addictive liabilities | 
2 | CO/N=C1\C[C@]2(C[C@@H]3C[C@@H](C/C=C(\C)C[C@@H](C)/C=C/C=C4\CO[C@@H]5[C@H](O)C(C)=C[C@@H](C(=O)O3)[C@]45O)O2)O[C@H](/C(C)=C/C(C)C)[C@H]1C [MOX, moxidectin] |  |  | 4 h |  |  | nor was any measured or observed obvious increase in toxicity or addictive liabilities
